Results published in patent publication US20190031676A1, “ANTIBACTERIAL ANNULATED PYRROLIDIN-2-ONE DERIVATIVES” (priority 2015, published 2019).
In brackets after ≈: the same amount, converted by molar mass.

What was measured:
Assay in all cases: Bacterial growth minimal inhibitory concentration (microdilution, cation-adjusted Mueller-Hinton Broth)
Type in all cases: cell-based
P. aeruginosa ATCC27853 = settings: quinolone-sensitive strain; for MIC: Pseudomonas aeruginosa, ATCC27853
Description: (§1) Minimal Inhibitory Concentrations (MICs; mg/L) were determined in cation-adjusted Mueller-Hinton Broth by a microdilution method following the description given in “Methods for Dilution Antimicrobial Susceptibility Tests for Bacteria that grow Aerobically”, Approved standard, 7th ed., Clinical and Laboratory Standards Institute (CLSI) Document M7-A7, Wayne, Pa., USA (2006).
(§2) All Example compounds were tested against several Gram-positive and Gram-negative bacteria. […] K. pneumoniae A-651 is a multiply-resistant strain (in particular quinolone-resistant), while E. coli ATCC25922 and P. aeruginosa ATCC27853 are quinolone-sensitive strains.

K. pneumoniae A-651 = settings: multiply-resistant strain (in particular quinolone-resistant); for MIC: Klebsiella pneumoniae, A651
Description: as §1, §2

E. coli ATCC25922 = settings: quinolone-sensitive strain; for MIC: Escherichia coli, ATCC25922
Description: as §1, §2

Structure (SMILES) | MIC (P. aeruginosa ATCC27853) [µg/mL] | MIC (K. pneumoniae A-651) [µg/mL] | MIC (E. coli ATCC25922) [µg/mL] | MIC for P. aeruginosa ATCC27853 (P. aeruginosa ATCC27853) [µg/mL] | MIC for K. Pneumoniae A-651 (K. pneumoniae A-651) [µg/mL] | MIC for E. coli ATCC25922 (E. coli ATCC25922) [µg/mL]
CC(C)(CO)c1ccc(C#Cc2cc3c(s2)C(=O)N(CCC(C)(C(=O)NO)S(C)(=O)=O)C3)cc1 (racemic) [Reference Example 1, (2RS)—N-hydroxy-4-(2-((4-(1-hydroxy-2-methylpropan-2-yl)phenyl)ethynyl)-6-oxo-4,6-dihydro-5H-thieno[2,3-c]pyrrol-5-yl)-2-methyl-2-(methylsulfonyl)butanamide] | 2 (≈ 3.96 µM) | 1 (≈ 1.98 µM) | 0.25 (≈ 0.495 µM) |  |  | 
CC(CCN1Cc2cc(C#CC#CC3(CO)CC3)sc2C1=O)(C(=O)NO)S(C)(=O)=O (racemic) [Reference Example 2, (2RS)—N-hydroxy-4-(2-((1-(hydroxymethyl)cyclopropyl)buta-1,3-diyn-1-yl)-6-oxo-4,6-dihydro-5H-thieno[2,3-c]pyrrol-5-yl)-2-methyl-2-(methylsulfonyl)butanamide] | 2 (≈ 4.44 µM) | 2 (≈ 4.44 µM) | 1 (≈ 2.22 µM) |  |  | 
C[C@@](CCN1Cc2cc(C#CC#C[C@@H]3C[C@H]3CO)sc2C1=O)(C(=O)NO)S(C)(=O)=O (single isomer, unassigned) [Example 1] | 0.5 (≈ 1.11 µM) | 0.25 (≈ 0.555 µM) | 0.125 (≈ 0.277 µM) |  |  | 
C[C@@](CCN1Cc2cc(C#CC#CC3CN([C@@H]4CCOC4)C3)sc2C1=O)(C(=O)NO)S(C)(=O)=O (single isomer, unassigned) [Example 37] | 1 (≈ 1.98 µM) | 0.5 (≈ 0.989 µM) | 0.5 (≈ 0.989 µM) |  |  | 
C[C@@](CCN1Cc2cc(C#CC#CC3CN([C@H]4CCOC4)C3)sc2C1=O)(C(=O)NO)S(C)(=O)=O (single isomer, unassigned) [Example 38] | 1 (≈ 1.98 µM) | 0.25 (≈ 0.494 µM) | 0.25 (≈ 0.494 µM) |  |  | 
COc1ccc(-c2cc3c(s2)C(=O)N(CC[C@](C)(C(=O)NO)S(C)(=O)=O)C3)c(F)c1 [Example 2, (2R)-4-(2-(2-fluoro-4-methoxyphenyl)-6-oxo-4,6-dihydro-5H-thieno[2,3-c]pyrrol-5-yl)-N-hydroxy-2-methyl-2-(methylsulfonyl)butanamide] | 2 (≈ 4.38 µM) | 0.25 (≈ 0.548 µM) | ≤ 0.063 |  |  | 
C[C@@](CCN1Cc2cc(C#CC#CC3(N)CC3)sc2C1=O)(C(=O)NO)S(C)(=O)=O [Example 3, (2R)-4-(2-((1-aminocyclopropyl)buta-1,3-diyn-1-yl)-6-oxo-4,6-dihydro-5H-thieno[2,3-c]pyrrol-5-yl)-N-hydroxy-2-methyl-2-(methylsulfonyl)butanamide] | 1 (≈ 2.3 µM) | 0.5 (≈ 1.15 µM) | 0.25 (≈ 0.574 µM) |  |  | 
CNC1(C#CC#Cc2cc3c(s2)C(=O)N(CC[C@](C)(C(=O)NO)S(C)(=O)=O)C3)CC1 [Example 5, (2R)—N-hydroxy-2-methyl-4-(2-((1-(methylamino)cyclopropyl)buta-1,3-diyn-1-yl)-6-oxo-4,6-dihydro-5H-thieno[2,3-c]pyrrol-5-yl)-2-(methylsulfonyl)butanamide] | 1 (≈ 2.22 µM) | 0.25 (≈ 0.556 µM) | 0.125 (≈ 0.278 µM) |  |  | 
C[C@@](CCN1Cc2cc(C#CC#CCOC(=O)N3CC(O)C3)sc2C1=O)(C(=O)NO)S(C)(=O)=O [Example 6, (3R)-5-(5-(4-(hydroxyamino)-3-methyl-3-(methylsulfonyl)-4-oxobutyl)-6-oxo-5,6-dihydro-4H-thieno[2,3-c]pyrrol-2-yl)penta-2,4-diyn-1-yl 3-hydroxyazetidine-1-carboxylate] | 2 (≈ 3.92 µM) | 1 (≈ 1.96 µM) | 1 (≈ 1.96 µM) |  |  | 
CNC1(C#CC#Cc2ccc3c(c2)CN(CC[C@](C)(C(=O)NO)S(C)(=O)=O)C3=O)CC1 [Example 7, (2R)—N-hydroxy-2-methyl-4-(5-((1-(methylamino)cyclopropyl)buta-1,3-diyn-1-yl)-1-oxoisoindolin-2-yl)-2-(methylsulfonyl)butanamide] | 2 (≈ 4.51 µM) | 1 (≈ 2.25 µM) | 0.25 (≈ 0.564 µM) |  |  | 
CN1CC(C#CC#Cc2ccc3c(c2)CN(CC[C@](C)(C(=O)NO)S(C)(=O)=O)C3=O)C1 [Example 8, (2R)—N-hydroxy-2-methyl-4-(5-((1-methylazetidin-3-yl)buta-1,3-diyn-1-yl)-1-oxoisoindolin-2-yl)-2-(methylsulfonyl)butanamide] | 1 (≈ 2.25 µM) | 2 (≈ 4.51 µM) | 1 (≈ 2.25 µM) |  |  | 
C[C@@](CCN1Cc2cc(C#CC#CCOC(=O)N3CC(O)C3)ccc2C1=O)(C(=O)NO)S(C)(=O)=O [Example 9, (3R)-5-(2-(4-(hydroxyamino)-3-methyl-3-(methylsulfonyl)-4-oxobutyl)-1-oxoisoindolin-5-yl)penta-2,4-diyn-1-yl 3-hydroxyazetidine-1-carboxylate] | 2 (≈ 3.97 µM) | 1 (≈ 1.99 µM) | 1 (≈ 1.99 µM) |  |  | 
COc1ccc(-c2ccc3c(c2)CN(CC[C@](C)(C(=O)NO)S(C)(=O)=O)C3=O)c(F)c1 [Example 10, (2R)-4-(5-(2-fluoro-4-methoxyphenyl)-1-oxoisoindolin-2-yl)-N-hydroxy-2-methyl-2-(methylsulfonyl)butanamide] | 8 (≈ 17.8 µM) | 0.063 (≈ 0.14 µM) | 0.125 (≈ 0.277 µM) |  |  | 
CN1CC(C#CC#Cc2cc3c(s2)C(=O)N(CC[C@](C)(C(=O)NO)S(C)(=O)=O)C3)C1 [Example 11, (2R)—N-hydroxy-2-methyl-4-(2-((1-methylazetidin-3-yl)buta-1,3-diyn-1-yl)-6-oxo-4,6-dihydro-5H-thieno[2,3-c]pyrrol-5-yl)-2-(methylsulfonyl)butanamide] | 0.5 (≈ 1.11 µM) | 1 (≈ 2.22 µM) | 0.25 (≈ 0.556 µM) |  |  | 
C[C@@](CCN1Cc2cc(C#CC#CC3(CO)CC3)ccc2C1=O)(C(=O)NO)S(C)(=O)=O [Example 12, (2R)—N-hydroxy-4-(5-((1-(hydroxymethyl)cyclopropyl)buta-1,3-diyn-1-yl)-1-oxoisoindolin-2-yl)-2-methyl-2-(methylsulfonyl)butanamide] | 2 (≈ 4.5 µM) | 0.25 (≈ 0.562 µM) | 0.031 (≈ 0.0697 µM) |  |  | 
C[C@@](CCN1Cc2cc(C#CC#CC3(N)CC3)ccc2C1=O)(C(=O)NO)S(C)(=O)=O [Example 13, (2R)-4-(5-((1-aminocyclopropyl)buta-1,3-diyn-1-yl)-1-oxoisoindolin-2-yl)-N-hydroxy-2-methyl-2-(methylsulfonyl)butanamide] | 1 (≈ 2.33 µM) | 1 (≈ 2.33 µM) | 0.5 (≈ 1.16 µM) |  |  | 
C[C@@](CCN1Cc2cc(C#Cc3ccc(CN4CC(F)C4)cc3)sc2C1=O)(C(=O)NO)S(C)(=O)=O [Example 14, (2R)-4-(2-((4-((3-fluoroazetidin-1-yl)methyl)phenyl)ethynyl)-6-oxo-4,6-dihydro-5H-thieno[2,3-c]pyrrol-5-yl)-N-hydroxy-2-methyl-2-(methylsulfonyl)butanamide] | 2 (≈ 3.85 µM) | 0.25 (≈ 0.481 µM) | 0.031 (≈ 0.0597 µM) |  |  | 
C[C@@](CCN1Cc2cc(C#CC#CC3CN(C4COC4)C3)sc2C1=O)(C(=O)NO)S(C)(=O)=O [Example 15, (2R)—N-hydroxy-2-methyl-2-(methylsulfonyl)-4-(2-((1-(oxetan-3-yl)azetidin-3-yl)buta-1,3-diyn-1-yl)-6-oxo-4,6-dihydro-5H-thieno[2,3-c]pyrrol-5-yl)butanamide] | 4 (≈ 8.14 µM) | 4 (≈ 8.14 µM) | 0.5 (≈ 1.02 µM) |  |  | 
C[C@@](CCN1Cc2cc(C#CC#CC3CN(CCO)C3)sc2C1=O)(C(=O)NO)S(C)(=O)=O [Example 17, (2R)—N-hydroxy-4-(2-((1-(2-hydroxyethyl)azetidin-3-yl)buta-1,3-diyn-1-yl)-6-oxo-4,6-dihydro-5H-thieno[2,3-c]pyrrol-5-yl)-2-methyl-2-(methylsulfonyl)butanamide] | 1 (≈ 2.09 µM) | 2 (≈ 4.17 µM) | 0.5 (≈ 1.04 µM) |  |  | 
C[C@@](CCN1Cc2cc(C#CC#C[C@H]3C[C@]3(F)CO)ccc2C1=O)(C(=O)NO)S(C)(=O)=O [Example 18, (2R)-4-(5-(((1R,2R)-2-fluoro-2-(hydroxymethyl)cyclopropyl)buta-1,3-diyn-1-yl)-1-oxoisoindolin-2-yl)-N-hydroxy-2-methyl-2-(methylsulfonyl)butanamide] | 1 (≈ 2.16 µM) | 2 (≈ 4.32 µM) | 0.5 (≈ 1.08 µM) |  |  | 
C[C@@](CCN1Cc2cc(C#CC#C[C@H]3C[C@@H]3CO)sc2C1=O)(C(=O)NO)S(C)(=O)=O [Example 19, (2R)—N-hydroxy-4-(2-(((1S,2S)-2-(hydroxymethyl)cyclopropyl)buta-1,3-diyn-1-yl)-6-oxo-4,6-dihydro-5H-thieno[2,3-c]pyrrol-5-yl)-2-methyl-2-(methylsulfonyl)butanamide] | 0.5 (≈ 1.11 µM) | 0.25 (≈ 0.555 µM) | 0.125 (≈ 0.277 µM) |  |  | 
CN(C)CC(=O)OC[C@H]1C[C@@H]1C#CC#Cc1cc2c(s1)C(=O)N(CC[C@](C)(C(=O)NO)S(C)(=O)=O)C2 [Example 20, ((1S,2S)-2-((5-((3R)-4-(hydroxyamino)-3-methyl-3-(methylsulfonyl)-4-oxobutyl)-6-oxo-5,6-dihydro-4H-thieno[2,3-c]pyrrol-2-yl)buta-1,3-diyn-1-yl)cyclopropyl)methyl dimethylglycinate] | 1 (≈ 1.87 µM) | 0.25 (≈ 0.467 µM) | 0.125 (≈ 0.233 µM) |  |  | 
C[C@@](CCN1Cc2cc(C#CC#C[C@@H]3C[C@@H](O)[C@@H](O)C3)sc2C1=O)(C(=O)NO)S(C)(=O)=O [Example 21, (2R)-4-(2-(((1S,3R,4S)-3,4-dihydroxycyclopentyl)buta-1,3-diyn-1-yl)-6-oxo-4,6-dihydro-5H-thieno[2,3-c]pyrrol-5-yl)-N-hydroxy-2-methyl-2-(methylsulfonyl)butanamide] |  |  |  | 1 | 2 | 0.5
C[C@@](CCN1Cc2cc(C#CC#C[C@H]3C[C@@H]3[C@@H](O)CO)sc2C1=O)(C(=O)NO)S(C)(=O)=O [Example 22, (2R)-4-(2-(((1S,2S)-2-((2R)-1,2-dihydroxyethyl)cyclopropyl)buta-1,3-diyn-1-yl)-6-oxo-4,6-dihydro-5H-thieno[2,3-c]pyrrol-5-yl)-N-hydroxy-2-methyl-2-(methylsulfonyl)butanamide] |  |  |  | 1 | 1 | 0.5
